Assay results published in patent US6348477B1, “Anti-herpesvirus compounds and methods for identifying, making and using same” (Boehringer Ingelheim(Canada) Ltd., priority 1995, dated 2002).
pEC50, pIC50: −log10 of the molar value.

Tests used:
[1] = target: T1, HSV-1 helicase-primase (Human herpesvirus 1, UniProt P10189+P10236); test: HSV-1 DNA-dependent ATPase assay (inhibition of HSV-1 helicase-primase); assay type: biochemical; details: Group 1 Table 1
T1 construct: made in house; host or cells: Sf21 insect cells triply infected with recombinant baculoviruses
T1 sequence (P10189 whole entry): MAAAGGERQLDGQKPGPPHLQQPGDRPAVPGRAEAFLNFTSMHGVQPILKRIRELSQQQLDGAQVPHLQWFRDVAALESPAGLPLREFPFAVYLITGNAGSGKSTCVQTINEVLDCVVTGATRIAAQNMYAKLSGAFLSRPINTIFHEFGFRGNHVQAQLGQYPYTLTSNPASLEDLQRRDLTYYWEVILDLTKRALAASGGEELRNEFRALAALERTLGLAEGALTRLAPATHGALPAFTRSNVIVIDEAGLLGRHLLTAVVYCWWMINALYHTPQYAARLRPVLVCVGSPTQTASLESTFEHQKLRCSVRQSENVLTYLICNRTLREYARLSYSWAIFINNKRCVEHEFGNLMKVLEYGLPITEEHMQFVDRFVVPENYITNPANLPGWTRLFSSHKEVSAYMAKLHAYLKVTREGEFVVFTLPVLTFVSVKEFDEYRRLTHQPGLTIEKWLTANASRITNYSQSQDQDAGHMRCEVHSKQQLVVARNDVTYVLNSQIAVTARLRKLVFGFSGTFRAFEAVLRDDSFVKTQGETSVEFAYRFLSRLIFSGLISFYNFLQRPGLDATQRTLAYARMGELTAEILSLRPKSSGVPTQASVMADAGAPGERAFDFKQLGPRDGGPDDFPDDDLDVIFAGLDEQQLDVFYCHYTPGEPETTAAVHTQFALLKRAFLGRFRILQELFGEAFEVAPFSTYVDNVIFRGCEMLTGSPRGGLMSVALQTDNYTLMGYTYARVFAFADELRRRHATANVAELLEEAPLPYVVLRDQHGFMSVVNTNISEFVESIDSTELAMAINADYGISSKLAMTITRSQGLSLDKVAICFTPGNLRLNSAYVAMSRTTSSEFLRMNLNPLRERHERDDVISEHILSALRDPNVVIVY
T1 sequence (P10192 whole entry, further chain): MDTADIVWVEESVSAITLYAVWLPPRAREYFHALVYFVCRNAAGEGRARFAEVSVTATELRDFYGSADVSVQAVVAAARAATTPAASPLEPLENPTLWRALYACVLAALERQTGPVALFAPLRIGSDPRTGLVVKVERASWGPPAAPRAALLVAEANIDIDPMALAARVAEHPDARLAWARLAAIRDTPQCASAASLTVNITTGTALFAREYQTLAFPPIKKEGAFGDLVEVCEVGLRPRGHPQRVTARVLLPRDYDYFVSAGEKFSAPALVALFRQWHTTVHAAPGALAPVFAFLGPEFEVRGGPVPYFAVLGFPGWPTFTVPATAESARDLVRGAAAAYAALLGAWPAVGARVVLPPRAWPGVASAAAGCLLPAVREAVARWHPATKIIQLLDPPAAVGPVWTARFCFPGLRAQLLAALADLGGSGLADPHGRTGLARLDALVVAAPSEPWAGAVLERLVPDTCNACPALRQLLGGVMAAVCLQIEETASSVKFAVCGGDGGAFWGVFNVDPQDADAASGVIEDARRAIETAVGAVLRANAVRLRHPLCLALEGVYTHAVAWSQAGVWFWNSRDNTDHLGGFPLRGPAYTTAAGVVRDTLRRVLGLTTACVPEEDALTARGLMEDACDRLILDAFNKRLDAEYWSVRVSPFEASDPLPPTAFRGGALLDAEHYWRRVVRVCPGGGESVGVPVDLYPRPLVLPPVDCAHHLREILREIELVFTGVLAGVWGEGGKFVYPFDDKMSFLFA
T1 sequence (P10236 whole entry): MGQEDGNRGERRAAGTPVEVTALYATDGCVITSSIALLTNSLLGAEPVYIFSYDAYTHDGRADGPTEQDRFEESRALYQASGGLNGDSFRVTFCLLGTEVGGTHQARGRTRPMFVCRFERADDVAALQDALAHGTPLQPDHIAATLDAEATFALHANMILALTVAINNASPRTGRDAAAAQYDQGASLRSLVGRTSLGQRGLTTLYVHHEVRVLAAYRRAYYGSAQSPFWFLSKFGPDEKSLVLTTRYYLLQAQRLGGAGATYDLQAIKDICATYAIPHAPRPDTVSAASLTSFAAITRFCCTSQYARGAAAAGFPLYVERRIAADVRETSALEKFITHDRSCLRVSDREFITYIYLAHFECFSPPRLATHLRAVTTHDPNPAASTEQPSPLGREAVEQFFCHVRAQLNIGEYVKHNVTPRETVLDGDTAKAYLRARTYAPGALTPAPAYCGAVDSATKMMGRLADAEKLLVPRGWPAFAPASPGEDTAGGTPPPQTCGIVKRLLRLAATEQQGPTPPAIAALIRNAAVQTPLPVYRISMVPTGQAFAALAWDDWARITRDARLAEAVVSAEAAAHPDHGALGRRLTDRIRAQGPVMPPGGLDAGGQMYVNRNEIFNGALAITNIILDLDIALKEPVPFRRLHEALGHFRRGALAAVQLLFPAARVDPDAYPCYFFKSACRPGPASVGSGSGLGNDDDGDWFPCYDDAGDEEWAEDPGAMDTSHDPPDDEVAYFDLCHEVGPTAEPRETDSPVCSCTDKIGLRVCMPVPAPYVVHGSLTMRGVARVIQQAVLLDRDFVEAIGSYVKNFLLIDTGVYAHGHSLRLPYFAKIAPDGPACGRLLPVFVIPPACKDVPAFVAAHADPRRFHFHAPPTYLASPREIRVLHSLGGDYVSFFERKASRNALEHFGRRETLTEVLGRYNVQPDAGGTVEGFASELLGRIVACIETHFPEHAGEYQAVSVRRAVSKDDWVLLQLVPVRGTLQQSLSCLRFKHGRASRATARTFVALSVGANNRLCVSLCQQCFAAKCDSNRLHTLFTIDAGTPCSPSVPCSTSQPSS
Text: A) HSV-1 DNA-Dependent ATP Assay (an in Vitro Assay Based on the Inhibition of HSV-1 Helicase-primase).
a) Preparation of enzyme: HSV-1 helicase-primase holoenzyme was produced in triply infected Sf21 cells using recombinant baculoviruses expressing the UL5, UL8 and UL52 helicase-primase subunits, as described by S. Dracheva et al., J. Biol. Chem. 1995, 270, 14148. The crude enzyme was purified by ammonium sulfate precipitation, Source 15Q® chromatography and Sephacryl® S-300 HR gel filtration (both purification systems can be obtained from Pharmacia Biotech Inc., Montreal, Quebec, Canada), see S. Dracheva et al., supra.
b) Assay: The DNA-dependent ATPase assay, described by J. J. Crute et al., Nucleic Acids Res. 1988, 16, 6585, was modified and used to evaluate the capability of the compounds of Group 1-formula 1 to inhibit HSV-1 helicase-primase activity. The reaction mixtures (80 μL each) contained 40 mM 4-(2-hydroxyethyl)-1-piperazineethanesulfonic acid (HEPES, pH 7.5), 10% (v/v) glycerol, 5.5 mM MgCl2, 1 mM DL-dithiothreitol (DTT), 50 μg/mL acetylated bovine serum albumin, 3.3% (v/v) DMSO, 4 mM ATP, 25 μM single-stranded M13 DNA hybridized to double-tailed 68-mer oligonucleotide and 3 μg/mL HSV-1 helicase-primase. After incubation for 20 min at 34°, formation of inorganic phosphate from hydrolysis of ATP was monitored spectrophotometrically at 650 nm using acidic ammonium molybdate/malachite green reagent, P. A. Lanzetta et al., Anal. Biochem. 1979, 100, 95. DNA-dependent ATPase activity was calculated from the net absorbance change in the presence and absence of inhibition.

[2] = test system: HSV-1 strain F or KOS; test: Inhibition of herpes simplex virus (HSV-1) replication in cell culture (BHK-21 cells, glycoprotein C ELISA); assay type: cell-based; details: Group 1 Table 1
Protocol: B) Inhibition of Herpes Simplex Virus (HSV-1) Replication in Cell Culture
Assay: BHK-21 cells clone 13 (ATCC CCL10) were incubated for two days in 850 cm^2 roller bottles (2×10^7 cells/bottle) with α-MEM medium (Gibco Canada Inc., Burlington, Ontario, Canada) supplemented with 8% (v/v) fetal bovine serum (FBS, Gibco Canada, Inc.). The cells were trypsinized and then 3,000 cells in 100 μL of fresh medium were transferred into each well of a 96-well microtiter plate. The cells were incubated at 37° for a period of 3 days to reach a density of 50,000 cells per well. The cells were washed twice with 100 μL of α-MEM supplemented with 2% heat inactivated FBS and incubated for 1-2 hours in 100 μL of the same medium.
Thereafter, the cells were infected with HSV-1 strain F or KOS (multiplicity of infection=0.05 PFU/cell) in 50 μL of α-MEM supplemented with 2% heat inactivated FBS. Following one hour of virus absorption at 37°, the medium was removed and the cells were washed with α-MEM supplemented with 2% heat inactivated FBS (2×100 μL). The cells were incubated with or without 100 μL of the appropriate concentration of test reagent in α-MEM medium supplemented with 2% heat inactivated FBS. After 24 hours of incubation at 37°, the extent of viral replication was determined by an ELISA assay; for instance, the following assay that detects the late glycoprotein C of HSV-1.
Cells were fixed in the microtiter plate with 100 μL of 0.063% glutaraldehyde in phosphate buffered saline for 30 min at room temperature. The microtiter plate was then washed once with casein blocking solution and blocked with 200 μL of the same solution for one hour at room temperature. Thereafter, 100 μL of mAb C11 recognizing the glycoprotein C of HSV-1 (see E. Trybala et al., Journal of General Virology, 1994, 75, 743) was added to each well for two hours at room temperature. The plate was washed three times with phosphate buffered saline containing 0.05% polyoxyethylene (20) sorbitan monooleate. The cells were incubated with 100 μL of sheep anti-mouse IgG horseradish peroxidase for one hour at room temperature in the dark.
The plate was washed three times with 200 μL of the above-noted phosphate buffer saline preparation, and then once with 0.1 M sodium citrate (pH 4.5). Thereafter, 100 μL of orthophenylenediamine dihydrochloride (OPD, Gibco, Canada Inc.) was added to each well. The plate was agitated on a microplate shaker for 30 min in the dark. Color development was monitored at 450 nm using a microplate spectrophotometer.
SAS was used to calculate % inhibition of viral replication and to generate EC50 values.

[3] = test system: HCMV (strain AD169); test: Inhibition of HCMV replication, ELISA assay (Hs-68 cells, p28); assay type: cell-based, human cytomegalovirus; details: Group 1 Table 1; read-out: ELISA CMV EC50
Protocol: (§1) C) Inhibition of Human Cytomegalovirus (HCMV) replication
(§2) The effect of compounds on the replication of HCMV has been measured by using an ELISA-based assay (ELISA) and a plaque reduction assay (PRA).
(§3) Hs-68 cells (ATCC # CRL 1635) were seeded in 96 well microtiter plates at 10,000 cells/well in 100 μL of DMEM medium (Gibco Canada Inc.) supplemented with 10% fetal bovine serum (FBS, Gibco Canada Inc.). The plates were incubated for 3 days at 37° to allow the cells to reach 80-90% confluency prior to the assay.
The medium was removed from wells by aspiration. The cells then were infected at a multiplicity of infection (MOI) of 0.01 PFU/cell with 50 μL of HCMV (strain AD169, ATCC VR-538) in DMEM medium supplemented with 5% heat inactivated FBS (assay medium). The virus was allowed to adsorb to cells for 2 h at 37°. Following viral adsorption, the medium was removed from the wells by aspiration. The cells were washed twice with 200 μL of assay medium to remove unabsorbed virus. The cells were then incubated with or without 100 μL of appropriate concentrations of test reagent in assay medium. After 8 days of incubation at 37°, the extent of viral replication was determined by an ELISA assay which detects the late structural protein p28 of HCMV.
Eight days after infection, the medium was aspirated from the wells. Non-specific binding sites were blocked by adding 200 μL of phosphate buffered saline containing 1% (w/v) bovine serum albumin (blocking buffer) to each well and incubating the plates for 30 min at room temperature. After removal of the blocking buffer by aspiration, the cells were fixed with 100 μL of cold ethanol-acetone solution (95:5) per well. The plates were placed at −20° for 30 min. The plates were washed 4 times with phosphate buffered saline containing 0.05% (v/v) polyoxyethylene sorbitan monolaurate (Tween 20®). Thereafter, 100 μL of mAb UL99 (Advanced Biotechnologies Inc., #13-130-100) recognizing HCMV protein p28 was added to each wells and plates were incubated for 2 h at room temperature. The plates were washed four times with 200 μL of the above-noted phosphate buffered saline/Tween-20® solution. The cells were then incubated with 100 μL of sheep anti-mouse IgGγ horseradish peroxidase conjugated for 2 h at room temperature. The plates were then washed four times with 200 μL of above-noted phosphate buffered saline/Tween-20®solution. Thereafter, 100 μL of ortho phenylenediamine dihydrochloride (OPD, Gibco Canada Inc.) solution was added to each well and the plates were agitated on a microplate shaker for 30 min in the dark. Color development was monitored at 450 nm using a microplate spectrophotometer.
The SAS program was used to calculate the % inhibition of viral replication and to generate EC50 values.
The EC50 values obtained according to this assay method for certain thiazolylphenyl derivatives of this invention are listed in the following tables under the heading ELISA CMV.

[4] = test system: HCMV (strain AD169); test: Inhibition of HCMV replication, plaque reduction assay (PRA, Hs-68 cells); assay type: cell-based, human cytomegalovirus; details: Group 1 Table 1; read-out: PRA CMV EC50
Protocol: as §1, §2
as §3, with “( ATCC” for “(ATCC”, “12-well” for “96 well microtiter”, “83,000” for “10,000”, “1 mL” for “100 μL”
The medium was removed from the cells by aspiration. The cells were then infected with approximately 50 PFU of HCMV (strain AD169, ATCC VR-538) in DMEM medium supplemented with 5% inactivated FBS (assay medium). The virus was allowed to adsorb to cells for 2 h at 37°. Following viral adsorption, the medium was removed from the wells by aspiration. The cells were then incubated with or without 1 mL of appropriate concentrations of test reagent in assay medium. After 4 days of incubation at 37°, the medium was exchanged with fresh medium containing test compound and 4 days later the cells were fixed with 1% aqueous formaldehyde and stained with a 2% crystal violet solution in 20% ethanol in water. Microscopic plaques were counted using a stereomicroscope. Drug effects were calculated as a percent reduction in the number of plaques in the presence of each drug concentration compared to the number observed in the absence of drug. Ganciclovir was used as a positive control in all experiments.
The EC50 values obtained according to this assay for certain thiazolyl derivatives of this invention are listed in the following tables under the heading PRA CMV.

[5] = test system: HSV-1 acyclovir-resistant mutant strain PAA^r5; test: Acyclovir-resistant HSV-1 PAAr5 cutaneous infection in immunodeficient nu/nu mice, oral; assay type: in vivo; details: 100 mg/kg/day oral, tid for 10 days (FIG. 1)
Protocol: (§4) Animals were cutaneously inoculated with 10^7 PFU of HSV-1 acyclovir resistant mutant viruses. The resulting cutaneous lesions were scored according to a subjective scoring system. The compound of Group 1 (Entry No. 29 in table 1) was administered orally (gavage) in an acidified vehicle (0.033 N aqueous HCl, tid for 10 days). Animals were similarly treated with acyclovir in 0.033 N aqueous HCl or only with the vehicle (0.033 N aqueous HCl). […] The dose-dependent effect of treatment with Entry No. 29 at 25 mg/kg/day (-♦-), 50 mg/kg/day (-▴-), 75 mg/kg/day (-□-), 100 mg/kg/day (-●-) or 125 mg/kg/day (-▪-), compared to treatment with vehicle alone (-∘-), is shown in FIG. 2. The ED50 of Entry No. 29 was about 60 mg/kg/day. Similar experiments were done using the HSV-1 acyclovir-resistant mutant strain dlsptk (FIGS. 3 and 4). […] The dose-dependent effect of treatment with Entry No. 29 at 25 mg/kg/day (-♦-), 50 mg/kg/day (▴-), 75 mg/kg/day (-□-), 100 mg/kg/day (-●-) or 125 mg/kg/day (-▪-), compared to treatment with vehicle alone (-∘-), is shown in FIG. 4. The acyclovir-resistant HSV-1 strains, PAA^r5 and dlsptk, have been described by P. A. Furman et al., J. Virol., 1981, 40, 936 and by D. M. Coen et al., Proc. Natl. Acad. Sci., 1989, 86, 4736, respectively.

[6] = test system: HSV-1 acyclovir-resistant mutant strain dlsptk; test: Acyclovir-resistant HSV-1 dlsptk cutaneous infection in immunodeficient nu/nu mice, oral; assay type: in vivo; details: 100 mg/kg/day oral, tid for 10 days (FIG. 3)
Protocol: as §4

SMILES | pIC50 [1] | pEC50 [2] | pEC50 [3] | pEC50 [4] | effect on cutaneous lesions [5] | effect on cutaneous lesions [6]
CC(c1ccccc1)N(CC(=O)Nc1ccc(-c2csc(N)n2)cc1)C(=O)C1CCCCC1 (centres unmarked) [Example 53] | 7.42 | 8.52 | 5.49 | 4.92 | – | –
Nc1nc(-c2ccc(NC(=O)CN(CC3CCCCC3)C(=O)c3cccnc3)cc2)cs1 [Example 64] | 5.60 | 5.77 | 6.12 | 4.70 | – | –
CC(c1ccccc1)N(CC(=O)Nc1ccc(-c2csc(N)n2)cc1)C(=O)OC(C)(C)C (centres unmarked) [Example 89] | 7.01 | 7.44 | 6.05 | 4.42 | – | –
Nc1nc2c(ncn2COCCO)c(=O)[nH]1 [acyclovir] | – | – | – | – | no effect | no effect
